Where a name gives a salt, the structure may show the parent alone.
Target: Tryptophanase (Escherichia coli (strain K12), UniProt P0A853)
Assay: Enzyme Inhibition Assay
Conditions: pH 7.8; 25 °C
From the text: Enzyme inhibition assay using tryptophanase.

Chain of Tryptophanase (P0A853 whole entry): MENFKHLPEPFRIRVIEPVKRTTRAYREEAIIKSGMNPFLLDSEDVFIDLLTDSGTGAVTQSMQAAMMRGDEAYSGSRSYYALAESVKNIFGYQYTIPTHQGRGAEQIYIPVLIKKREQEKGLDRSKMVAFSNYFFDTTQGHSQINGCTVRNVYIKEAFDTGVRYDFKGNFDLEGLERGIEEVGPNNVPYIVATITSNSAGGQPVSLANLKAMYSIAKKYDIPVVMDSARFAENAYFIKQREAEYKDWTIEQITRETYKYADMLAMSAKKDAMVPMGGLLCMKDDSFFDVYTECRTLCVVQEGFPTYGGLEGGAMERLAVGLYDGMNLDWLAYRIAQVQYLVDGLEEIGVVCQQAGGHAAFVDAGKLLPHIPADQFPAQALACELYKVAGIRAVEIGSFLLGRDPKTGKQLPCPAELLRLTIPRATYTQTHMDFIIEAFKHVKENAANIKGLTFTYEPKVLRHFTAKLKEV

Structure (SMILES)	Ki
CCOC(=O)C(N)Cc1c[nH]c2ccccc12 [L-tryptophan-ethylester (p-toluene sulfuric acid salt)]	52 µM
CC(=O)NC(Cc1c[nH]c2ccccc12)C(=O)O (configuration not stated) [N-acetyl tryptophan]	48 µM
